Columns and labels:
Type in all cases: functional, cell-based
[1] = target: T1, C-C chemokine receptor type 5 (Homo sapiens, UniProt P51681); assay: Inhibition of MIP-1beta ligand of chemokine receptor 5 induced calcium signal in U-87-CCR5 cells by calcium mobilization assay
[2] = target: T1, C-C chemokine receptor type 5; assay: Inhibition of 50% of RANTES co-receptor of chemokine receptor 5 induced calcium signal in U-87-CCR5 cells by calcium mobilization assay
[3] = target: T1, C-C chemokine receptor type 5; assay: Inhibition of MIP-1alpha ligand of chemokine receptor 5 induced calcium signal in U-87-CCR5 cells by calcium mobilization assay
[4] = target: T1, C-C chemokine receptor type 5; assay: Inhibition of RANTES co-receptor of chemokine receptor 5 induced calcium signal in U-87-CCR5 cells by calcium mobilization assay

T1 sequence (P51681 whole entry): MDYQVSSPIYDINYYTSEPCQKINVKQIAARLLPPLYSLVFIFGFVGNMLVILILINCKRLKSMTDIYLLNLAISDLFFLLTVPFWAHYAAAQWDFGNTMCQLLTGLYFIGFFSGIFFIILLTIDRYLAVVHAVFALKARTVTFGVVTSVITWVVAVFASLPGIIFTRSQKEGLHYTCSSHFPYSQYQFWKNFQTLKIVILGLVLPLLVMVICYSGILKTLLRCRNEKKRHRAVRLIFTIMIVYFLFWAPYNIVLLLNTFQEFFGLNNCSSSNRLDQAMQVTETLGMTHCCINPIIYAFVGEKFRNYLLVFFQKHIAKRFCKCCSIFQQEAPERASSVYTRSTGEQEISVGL

IC50 [1] [µM] | IC50 [2] [µM] | IC50 [3] [µM] | IC50 [4] [µM] | Compound
5.5 | 8.7 | > 10 |  | COc1ccc(/C=C/C(=O)OC(C)C(=O)[C@H]2C[C@@H]2[C@H](O)[C@H]2CC=CC(=O)O2)cc1 (some centres undefined)
7.2 |  | 10 | > 10 | CC(OC(=O)/C=C/c1ccc(O)cc1)C(=O)[C@H]1C[C@@H]1[C@H](O)[C@H]1CC=CC(=O)O1 (some centres undefined)
6 |  | 8.8 | > 10 | COc1ccc(/C=C\C(=O)OC(C)C(=O)[C@H]2C[C@@H]2[C@H](O)[C@H]2CC=CC(=O)O2)cc1 (some centres undefined)

— ChEMBL document CHEMBL1137978, “Three new compounds from the plant Lippia alva as inhibitors of chemokine receptor 5 (CCR5)” (Bioorg Med Chem Lett, 2004)
